Laboratory results: ChEMBL document CHEMBL1201861, “Genomics of Drug Sensitity in Cancer screening data, Wellcome Trust Sanger Institute”
“And” between values parts separate entries of the source, which are not always exact repeats. Identical values can stand only once. Where a SMILES comes first, the peptide text is derived from it. The star is where a group is joined. Cbz = O=C(OCc1ccccc1)*

Experiments:
RL95-2 = experiment: cells; assay type: functional, cell-based, Homo sapiens;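 also: RL95-2 growth inhibition determined through a cell viability readout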
Description: SANGER: Inhibition of human RL95-2 cell growth in a cell viability assay.

NCI-H2196 = experiment: cells; assay type: functional, cell-based, Homo sapiens;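 also: cell viability assay used as the readout of growth inhibition in NCI-H2196 cells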
Description: SANGER: Inhibition of human NCI-H2196 cell growth in a cell viability assay.

GDM-1 = experiment: cells; assay type: functional, cell-based, Homo sapiens;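 also: cell viability readout used to measure growth inhibition of human GDM-1 cells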
Description: SANGER: Inhibition of human GDM-1 cell growth in a cell viability assay.

PF-382 = experiment: cells; assay type: functional, cell-based, Homo sapiens
Description: SANGER: Inhibition of human PF-382 cell growth in a cell viability assay.

SU-DHL-1 = experiment: SANGER: Inhibition of human SU-DHL-1 cell growth in a cell viability assay.; assay type: functional, cell-based
SCLC-21H = experiment: cells; assay type: functional, cell-based, Homo sapiens;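 also: growth inhibition of cultured human SCLC-21H cells, read out with a cell viability assay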
Description: SANGER: Inhibition of human SCLC-21H cell growth in a cell viability assay.

Kasumi 1 = experiment: cells; assay type: functional, cell-based, Homo sapiens;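 also: growth inhibition of human Kasumi-1 cells, read out by a cell viability assay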
Description: SANGER: Inhibition of human KASUMI-1 cell growth in a cell viability assay.

NCI-H524 = experiment: cells; assay type: functional, cell-based, Homo sapiens;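 also: growth inhibition of human NCI-H524 cells, read out through a cell viability assay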
Description: SANGER: Inhibition of human NCI-H524 cell growth in a cell viability assay.

NCI-H1882 = experiment: cells; assay type: functional, cell-based, Homo sapiens;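 also: growth inhibition of the cell line, determined with a viability assay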
Description: SANGER: Inhibition of human NCI-H1882 cell growth in a cell viability assay.

NALM-6 = experiment: cells; assay type: functional, cell-based, Homo sapiens;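 also: growth inhibition of NALM-6 cells, read out with a cell viability assay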
Description: SANGER: Inhibition of human NALM-6 cell growth in a cell viability assay.

HCC1599 = experiment: cells; assay type: functional, cell-based, Homo sapiens;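 also: growth inhibition of HCC1599 cells, read out in a cell viability assay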
Description: SANGER: Inhibition of human HCC1599 cell growth in a cell viability assay.

EB2 = experiment: cells; assay type: functional, cell-based, Homo sapiens;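 also: growth inhibition of EB2 cells, read out with a cell viability assay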
Description: SANGER: Inhibition of human EB2 cell growth in a cell viability assay.

HC-1 = experiment: cells; assay type: functional, cell-based, Homo sapiens;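 also: growth inhibition of HC-1 cells measured by a cell viability assay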
Description: SANGER: Inhibition of human HC-1 cell growth in a cell viability assay.

HSC-4 = experiment: cells; assay type: functional, cell-based; conditions: Homo sapiens;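 also: growth inhibition of human HSC-4 cells, read out with a cell viability assay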
Description: SANGER: Inhibition of human HSC-4 cell growth in a cell viability assay.

VM-CUB-1 = experiment: cells; assay type: functional, cell-based; conditions: Homo sapiens;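 also: cell viability assay measuring growth inhibition of the human VM-CUB-1 cell line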
Description: SANGER: Inhibition of human VM-CUB-1 cell growth in a cell viability assay.

NCI-H460 = experiment: cells; assay type: functional, cell-based; conditions: Homo sapiens;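 also: cell viability assay scoring growth inhibition of human NCI-H460 cells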
Description: SANGER: Inhibition of human NCI-H460 cell growth in a cell viability assay.

J82 = experiment: cells; assay type: functional, cell-based; conditions: Homo sapiens;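 also: growth inhibition of J82 cells, read out with a cell viability assay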
Description: SANGER: Inhibition of human J82 cell growth in a cell viability assay.

KOSC-2 = experiment: cells; assay type: functional, cell-based; conditions: Homo sapiens;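 also: growth inhibition of KOSC-2 cells, read out by a cell viability assay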
Description: SANGER: Inhibition of human KOSC-2 cell growth in a cell viability assay.

HMV-2 cell line = experiment: cells; assay type: functional, cell-based; conditions: Homo sapiens;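 also: growth inhibition of HMV-II cells, read out with a cell viability assay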
Description: SANGER: Inhibition of human HMV-II cell growth in a cell viability assay.

NCI-H1792 = experiment: cells; assay type: functional, cell-based; conditions: Homo sapiens;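 also: growth inhibition of human NCI-H1792 cells, read out as cell viability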
Description: SANGER: Inhibition of human NCI-H1792 cell growth in a cell viability assay.

5637 = experiment: cells; assay type: functional, cell-based; conditions: Homo sapiens
Description: SANGER: Inhibition of human 5637 cell growth in a cell viability assay.

HO-1-N-1 = experiment: cells; assay type: functional, cell-based; conditions: Homo sapiens;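 also: growth inhibition of human HO-1-N-1 cells, read out with a cell viability assay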
Description: SANGER: Inhibition of human HO-1-N-1 cell growth in a cell viability assay.

[1] = Homo sapiens, NCI-H2196, read-out: IC50
[2] = Homo sapiens, GDM-1, read-out: IC50

Structure (SMILES) | IC50 (RL95-2; Homo sapiens, RL95-2) | IC50 (NCI-H2196; [1]) | IC50 (GDM-1; [2]) | IC50 (PF-382; Homo sapiens, PF-382) | IC50 (SU-DHL-1; Homo sapiens, SU-DHL-1) | IC50 (SCLC-21H; Homo sapiens, SCLC-21H) | IC50 (Kasumi 1; Homo sapiens, Kasumi 1) | IC50 (NCI-H524; Homo sapiens, NCI-H524) | IC50 (NCI-H1882; Homo sapiens, NCI-H1882) | IC50 (NALM-6; Homo sapiens, NALM-6) | IC50 (HCC1599; Homo sapiens, HCC1599) | IC50 (EB2; Homo sapiens, EB2) | IC50 (HC-1; Homo sapiens, HC-1) | other results
Nc1ccccc1NC(=O)c1ccc(CNC(=O)OCc2cccnc2)cc1 [ENTINOSTAT] | 2110 nM | 4060 nM | 887 nM | 1120 nM | 659 nM | 1260 nM | > 5000 nM | 554 nM | 2680 nM | 649 nM | 516 nM | > 5000 nM | 505 nM | 
Cc1ccc(NC(=O)c2ccc(CN3CCN(C)CC3)cc2)cc1Nc1nccc(-c2cccnc2)n1 [IMATINIB] | > 2000 nM |  |  | > 2000 nM | > 2000 nM | > 2000 nM | > 2000 nM | > 2000 nM | > 2000 nM | > 2000 nM | > 2000 nM | > 2000 nM | > 2000 nM | IC50 (NCI-H2196; Homo sapiens, NCI-H2196): > 2000 nM; IC50 (GDM-1; Homo sapiens, GDM-1): > 2000 nM
CC(C)C[C@@H](C=O)NC(=O)[C@H](CC(C)C)NC(=O)[C@H](CC(C)C)NC(=O)OCc1ccccc1 [MG-132] (Cbz-Leu-Leu-Leu-aldehyde) |  | > 1000 nM |  |  |  |  | > 1000 nM | > 1000 nM |  | > 1000 nM |  |  |  | IC50 (RL95-2; rl95-2): > 1000 nM; IC50 (NCI-H2196; nci-h2196, read-out: IC50): > 1000 nM; IC50 (GDM-1; gdm-1, read-out: IC50): 351 nM and > 1000 nM; IC50 (PF-382; pf-382): 167 nM and 584 nM; IC50 (SU-DHL-1; su-dhl-1): > 1000 nM; IC50 (SCLC-21H; sclc-21h): > 1000 nM; IC50 (Kasumi 1; kasumi 1): > 1000 nM; IC50 (NCI-H524; nci-h524): > 1000 nM; IC50 (NCI-H1882; nci-h1882): 590 nM and > 1000 nM; IC50 (NALM-6; nalm-6): > 1000 nM; IC50 (HCC1599; hcc1599): > 1000 nM; IC50 (EB2; eb2): > 1000 nM; IC50 (HC-1; hc-1): > 1000 nM
CO[C@@H]1[C@H](N(C)C(=O)c2ccccc2)C[C@H]2O[C@]1(C)n1c3ccccc3c3c4c(c5c6ccccc6n2c5c31)C(=O)NC4 [MIDOSTAURIN] |  |  |  |  | > 512 nM |  |  |  |  |  |  |  |  | IC50 (HSC-4): > 512 nM; IC50 (VM-CUB-1): > 512 nM; IC50 (NCI-H460): > 512 nM; IC50 (J82): > 512 nM; IC50 (KOSC-2): > 512 nM; IC50 (HMV-2 cell line): > 512 nM; IC50 (NCI-H1792): 331 nM; IC50 5637: > 512 nM; IC50 (HO-1-N-1): > 512 nM
COc1cc(N2CCC(N3CCN(C)CC3)CC2)ccc1Nc1ncc(Cl)c(Nc2ccccc2S(=O)(=O)C(C)C)n1 [TAE-684] | 501 nM | > 2000 nM | 471 nM | 1570 nM | 48.6 nM | > 2000 nM | > 2000 nM | 1640 nM | 1240 nM | 907 nM | > 2000 nM | > 2000 nM | > 2000 nM | 
